Columns and labels:
Assay type in all cases: cell-based, Cucumis sativus
CHRC mRNA [1] = assay: In vitro flower bud culture, Northern blot of CHRC mRNA in corollas; conditions: 100 μM ABA, 2 hours
Procedure: (§1) Young flower buds were cultured in vitro in the presence (GA) or the absence (C) of 100 μM GA3 for up to 48 hours. Northern and Western blot analyses of corollas, cultured for the indicated periods of time, were performed. The Northern blots (25 μg total RNA/lane) were hybridized with ^32P-labeled DNA inserts from CHRC (CHRC), […] (Psy), and 18s rDNA (18S). Western blot analysis (bottom panel of A) was performed using antibodies against CHRC protein (25 μg total protein/lane). The results of the CHRC Northern blot analyses are also shown graphically relative to the mRNA level of the untreated corollas at zero time (0) (arbitrary value of 1).
(§2) Flower buds were cultured in the presence of 100 μm GA3 (GA), 100 μg/ml paclobutrazol following 2 hours of pretreatment with 100 μg/ml paclobutrazol (P), 100 μg/ml paclobutrazol +100 μm GA3 following 2 hours of pretreatment with 100 μg/ml paclobutrazol (P/GA), 100 μM ABA (ABA), or no phytohormones (C). Total RNA was extracted from corollas after 2 hours of treatment. Northern blot analyses were performed and probed as described in the legend to FIG. 7.
(§3) Total RNA and protein were extracted from cucumber corollas of flower buds cultured for 6 hours in the presence of 100 μM GA3 (GA), 50 μM CHX following 2 hours of pretreatment with 50 μM CHX (CHX/GA), or no phytohormones (C). Northern (CHRC, Psy, and 18S) and Western (bottom panel) blot analyses were performed as described above.
In FIG. 10, flower buds were cultured for 2 hours without (0) or with various concentrations of GA3. Total RNA was isolated from corollas, and a Northern blot was probed as above. The results of the CHRC Northern blot analyses are also shown graphically relative to the mRNA level of control corollas cultured without GA3 (arbitrary value of 1).
(§4) This example describes plant material and conditions for in vitro flower bud culture. C. sativus L. plants (cultivar Shimahon, obtained from Zeraim Gadera, Israel) were grown under standard greenhouse conditions. In vitro culture of flower buds was performed at 23° C., under constant light from cool white fluorescent lamps with a photosynthetic photon flux density of 80 μmol/m^2 g, as described previously. Briefly, buds at developmental stage 1 (˜8 mm in length, 120 hours before anthesis) were collected and rinsed several times with sterile water. Buds were then placed for 24 hours on a perforated Parafilm (American National Can, Greenwich, Conn.) covering a Petri dish filled with double-distilled sterile water, such that only the bases of the buds were in contact with the liquid. Following equilibration, buds were transferred to a fresh Petri dish (zero time for the experiments) and treated with GA3, ABA, paclobutrazol, or CHX, as specified in the figure legends.
This example describes conditions used for RNA isolation and Northern blot analysis. Total RNA from corollas of cucumber flower buds was isolated as described previously. RNA (15 and 25 μg) was fractionated through a 1.2% formaldehyde gel and transferred to a Hybond-N^− filter (Amersham Corp.). A random priming kit (Boehringer Mannheim) was used to radioactively labeled DNA probes. The blots were hybridized with ^32P-labeled cucumber CHRC cDNA (Vishnevetsky, et al., Plant Journal, 10: 1111-1118 (1996)) and reprobed with melon phytoene synthase (PSY) cDNA (MEL5), provided by D. Grierson of the Nottingham University, UK. The hybridization for analysis of CHRC expression was carried out in 0.263 M Na2HPO4, 7% SDS, […], 1% BSA for 16 hours at 60° C., and the washes were performed in 2×SSC/0.1% SDS at 50° C. followed by 2×SSC/0.1% SDS at 55° C., for 20 minutes each. Hybridization with the MEL5 probe was carried out at 55° C. using the same procedure. Following the hybridization, the blots were washed in 5×SSC/0.1% SDS at 45° C. for 20 minutes followed by 5×SSC/0.1% SDS at 50° C. and 2×SSC/0.1% SDS at 50° C. for 20 minutes each. […]

CHRC mRNA [2] = assay: as above; conditions: 10 μM ABA
Psy mRNA = assay: In vitro flower bud culture, Northern blot of Psy mRNA in corollas; conditions: 100 μM ABA or 100 μg/ml paclobutrazol, 2 hours of treatment
Procedure: as §1, §2, §3
as §4, with “Following equilibration, buds were transferred to a fresh Petri dish (zero time for the experiments) and treated with GA3, ABA, paclobutrazol, or CHX, as specified in the figure legends.” left out
This example describes conditions used for RNA isolation and Northern blot analysis. […] Autoradiograms were quantified by scanning suitably exposed films in a densitometer (Molecular Dynamics, Sunnyvale, Calif.). The amount of RNA loaded onto the gels was standardized by optical measurement, by quantitation of the ethidium bromide fluorescence of cytoplasmic rRNA. and by the level of hybridization with a DNA fragment coding for cytoplasmic 18S RNA.

CHRD = assay: In vitro flower bud culture, Western blot of CHRD in corollas; conditions: flower buds cultured for 72 hours
Procedure: CHRD levels in corollas were analyzed by western blotting (10 μg of total protein per lane) using antibodies against CHRD and horseradish peroxidase anti-rabbit IgG in an enhanced chemiluminescence detection system. FIG. 14B is a Western blot analysis of corollas (50 μg of total protein per lane) cultured for the indicated periods with (+) or without (−) GA3. The blot was decorated with antibodies against CHRD and alkaline phosphatase anti-rabbit 1 gG.
In FIG. 15A, antibodies against CHRD or CHRC were used in a western blot analysis of CHRD and CHRC levels, respectively, in corollas cultured for 72 hours in the presence (E) or absence (C) of ethylene (50 μg of total protein per lane). In FIG. 15B, flowers were enclosed in aluminum foil in the greenhouse for 3 days and CHRD levels in etiolated (D) and control, nonetiolated (L) corollas were analyzed by western blotting (50 μg of total protein per lane).
as §4
CHRD protein was isolated from Cucumis sativus as a minor component, immunologically characterised and analyzed in terms of the regulation of its expression by developmental signals using methods and conditions described above for CHRC. […] Carotenoids are known to accumulate in dark.

Question: Which “Down-regulation of CHRC mRNA level compared with control corollas” value (CHRC mRNA [1]) does the source give for `CC1=CC(=O)CC(C)(C)[C@@]1(O)/C=C/C(C)=C\C(=O)O` [ABA, abscisic acid] here?
Answer: The value was 2.5 times.

Question: And the “Down-regulation of CHRC expression” value (CHRC mRNA [2])?
Answer: The value was “only slightly down-regulated”.

Question: What about the “Effect on Psy mRNA levels” value (Psy mRNA) of the same molecule?
Answer: Its value is “Neither ABA nor paclobutrazol markedly affected”.

Question: And the “CHRD level per unit protein, down-regulation compared with control untreated corollas” value (CHRD)?
Answer: The value was 2.5±0.3 times.

Reference: patent US6551793B1, “Carotenoid-associated proteins useful for high carotenoid accumulation and production in plants and other organisms” (Yissum Research Development Company of the Hebrew …, priority 1996, dated 2003)
